The target in test [1] is T1, Histone deacetylase 3/Nuclear receptor corepressor 2 (HDAC3/NCoR2) (Homo sapiens, UniProt O15379). Briefly: Inhibition of human full length C-terminal His-tagged HDAC3/N-terminal GST-tagged human NCOR2 co-expressed in baculovirus infected Sf9 insect cells after 1 hr in presence of acetylated lysine substrate by fluorescence assay.
The species entered for test [2] is Homo sapiens. In words: Selectivity ratio of IC50 for human full length C-terminal His/FLAG-tagged HDAC1 expressed in baculovirus infected Sf9 insect cells to IC50 for human full length C-terminal His-tagged HDAC2 expressed in baculovirus infected Sf9 insect cells.
Test [3] addresses T2, Histone deacetylase 2 (Homo sapiens, UniProt Q92769). Briefly: Inhibition of human full length C-terminal His-tagged HDAC2 expressed in baculovirus infected Sf9 insect cells after 1 hr in presence of acetylated lysine substrate by fluorescence assay.
Test [4] addresses T3, Histone deacetylase 1 (Homo sapiens, UniProt Q13547). Briefly: Inhibition of human full length C-terminal His/FLAG-tagged HDAC1 expressed in baculovirus infected Sf9 insect cells after 1 hr in presence of acetylated lysine substrate by fluorescence assay.
Test [5] deals with T3, Histone deacetylase 1. Briefly: Inhibition of human full length C-terminal His/FLAG-tagged HDAC1 expressed in baculovirus infected Sf9 insect cells preincubated for 2 hrs followed by Fluor-de-Lys substrate addition measured after 30 mins by fluorescence assay. In kind it is cell-based.
Test [6] has as its target T4, Histone deacetylase 8 (Homo sapiens, UniProt Q9BY41).
T4 sequence (Q9BY41 whole entry): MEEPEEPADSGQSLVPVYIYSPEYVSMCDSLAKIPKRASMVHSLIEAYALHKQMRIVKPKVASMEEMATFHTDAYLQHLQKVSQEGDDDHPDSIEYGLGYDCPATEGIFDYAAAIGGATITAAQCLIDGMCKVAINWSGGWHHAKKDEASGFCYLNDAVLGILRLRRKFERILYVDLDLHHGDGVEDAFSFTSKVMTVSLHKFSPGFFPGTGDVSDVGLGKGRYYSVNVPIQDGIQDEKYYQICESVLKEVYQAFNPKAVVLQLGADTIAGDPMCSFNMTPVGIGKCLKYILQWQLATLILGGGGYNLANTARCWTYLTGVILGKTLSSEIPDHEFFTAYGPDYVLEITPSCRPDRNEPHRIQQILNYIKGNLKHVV
Briefly: Inhibition of HDAC8 (unknown origin) preincubated for 2 hrs followed by Fluor-de-Lys substrate addition measured after 30 mins by fluorescence assay.

Test [7] addresses Histone deacetylase 4 (Homo sapiens, UniProt P56524). In words: Inhibition of human recombinant N-terminal GST-tagged/C-terminal His-tagged HDAC4 expressed in baculovirus infected insect cells preincubated for 2 hrs followed by Fluor-de-Lys substrate addition measured after 30 mins by fluorescence assay. Format: cell-based.
Test [8] deals with T1, Histone deacetylase 3/Nuclear receptor corepressor 2 (HDAC3/NCoR2). In words: Inhibition of human full length C-terminal His-tagged HDAC3/N-terminal GST-tagged human NCOR2 co-expressed in baculovirus infected Sf9 insect cells preincubated for 2 hrs followed by Fluor-de-Lys substrate addition measured after 30 mins by fluorescence assay. In kind it is cell-based.
For test [9], the target named is Histone deacetylase 5 (Homo sapiens, UniProt Q9UQL6). Briefly: Inhibition of human recombinant C-terminal His-tagged HDAC5 expressed in baculovirus infected insect cells preincubated for 2 hrs followed by Fluor-de-Lys substrate addition measured after 30 mins by fluorescence assay. In kind it is cell-based.
The target in test [10] is T5, Histone deacetylase 7 (Homo sapiens, UniProt Q8WUI4).
T5 sequence (Q8WUI4 whole entry): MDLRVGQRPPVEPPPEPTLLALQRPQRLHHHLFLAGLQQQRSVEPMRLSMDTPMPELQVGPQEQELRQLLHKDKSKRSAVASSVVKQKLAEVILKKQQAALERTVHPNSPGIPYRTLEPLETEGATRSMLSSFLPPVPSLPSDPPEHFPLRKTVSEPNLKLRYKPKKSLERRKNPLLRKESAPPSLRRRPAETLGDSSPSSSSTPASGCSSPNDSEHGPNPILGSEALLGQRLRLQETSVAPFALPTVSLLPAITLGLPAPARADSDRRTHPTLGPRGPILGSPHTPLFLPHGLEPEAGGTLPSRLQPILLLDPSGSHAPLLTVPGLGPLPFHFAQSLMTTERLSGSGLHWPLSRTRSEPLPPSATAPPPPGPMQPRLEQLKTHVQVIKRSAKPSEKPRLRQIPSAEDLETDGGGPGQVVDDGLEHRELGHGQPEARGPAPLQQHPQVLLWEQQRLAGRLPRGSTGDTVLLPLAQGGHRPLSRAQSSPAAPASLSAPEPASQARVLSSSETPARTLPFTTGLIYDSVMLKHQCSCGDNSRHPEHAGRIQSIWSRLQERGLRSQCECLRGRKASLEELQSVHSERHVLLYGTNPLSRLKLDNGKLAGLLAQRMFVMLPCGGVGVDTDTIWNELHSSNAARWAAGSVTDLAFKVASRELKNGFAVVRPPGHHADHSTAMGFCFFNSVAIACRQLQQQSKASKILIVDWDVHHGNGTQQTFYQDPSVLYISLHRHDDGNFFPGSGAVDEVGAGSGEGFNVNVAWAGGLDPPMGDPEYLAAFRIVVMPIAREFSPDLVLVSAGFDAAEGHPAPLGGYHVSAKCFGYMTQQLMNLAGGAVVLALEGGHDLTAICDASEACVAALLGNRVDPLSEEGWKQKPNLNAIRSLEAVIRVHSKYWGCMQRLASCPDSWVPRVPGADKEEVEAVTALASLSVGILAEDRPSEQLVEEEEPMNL
Briefly: Inhibition of human recombinant N-terminal GST-tagged HDAC7 expressed in baculovirus infected insect cells preincubated for 2 hrs followed by Fluor-de-Lys substrate addition measured after 30 mins by fluorescence assay. Format: cell-based.

Test [11] has as its target T2, Histone deacetylase 2. In words: Inhibition of human full length C-terminal FLAG-tagged HDAC2 expressed in baculovirus infected Sf9 insect cells preincubated for 2 hrs followed by Fluor-de-Lys substrate addition measured after 30 mins by fluorescence assay. In kind it is cell-based.
In test [12] the target is T3, Histone deacetylase 1. In words: Inhibition of recombinant full length human C-terminal FLAG/His-tagged HDAC1 expressed in baculovirus infected sf9 cells preincubated for 3 hrs followed by fluorophore conjugated MAZ1600 substrate addition measured every 5 mins by fluorescence assay.
Test [13] has as its target T2, Histone deacetylase 2. In words: Inhibition of human full length C-terminal His/FLAG-tagged HDAC2 expressed in baculovirus infected Sf9 cells preincubated for 3 hrs followed by fluorophore conjugated MAZ1600 substrate addition measured every 5 mins by fluorescence assay.
Test [14] addresses T1, Histone deacetylase 3/Nuclear receptor corepressor 2 (HDAC3/NCoR2). Briefly: Inhibition of human full length C-terminal His-tagged HDAC3/N-terminal GST-tagged human NCOR2 (395 to 489 residues) co-expressed in baculovirus infected Sf9 insect cells preincubated for 3 hrs followed by fluorophore conjugated MAZ1600 substrate addition measured every 5 mins by fluorescence assay.

The results in this text go back to ChEMBL document CHEMBL4033774, “Class I HDAC Inhibitors: Potential New Epigenetic Therapeutics for Alcohol Use Disorder (AUD)” (J Med Chem, 2018).

T3 sequence (Q13547 whole entry): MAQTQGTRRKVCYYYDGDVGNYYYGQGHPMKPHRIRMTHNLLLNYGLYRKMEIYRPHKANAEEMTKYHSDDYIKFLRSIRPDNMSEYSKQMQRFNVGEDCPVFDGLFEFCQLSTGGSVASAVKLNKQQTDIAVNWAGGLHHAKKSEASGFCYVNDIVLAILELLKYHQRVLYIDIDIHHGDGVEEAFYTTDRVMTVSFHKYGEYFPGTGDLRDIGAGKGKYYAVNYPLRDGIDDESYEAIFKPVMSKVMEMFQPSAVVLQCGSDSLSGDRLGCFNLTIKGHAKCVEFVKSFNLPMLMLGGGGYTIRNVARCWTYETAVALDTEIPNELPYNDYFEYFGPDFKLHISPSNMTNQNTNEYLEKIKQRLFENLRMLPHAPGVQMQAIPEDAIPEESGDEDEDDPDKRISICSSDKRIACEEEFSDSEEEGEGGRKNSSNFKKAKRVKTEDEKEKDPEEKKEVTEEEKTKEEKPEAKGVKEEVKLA
T2 sequence (Q92769 whole entry): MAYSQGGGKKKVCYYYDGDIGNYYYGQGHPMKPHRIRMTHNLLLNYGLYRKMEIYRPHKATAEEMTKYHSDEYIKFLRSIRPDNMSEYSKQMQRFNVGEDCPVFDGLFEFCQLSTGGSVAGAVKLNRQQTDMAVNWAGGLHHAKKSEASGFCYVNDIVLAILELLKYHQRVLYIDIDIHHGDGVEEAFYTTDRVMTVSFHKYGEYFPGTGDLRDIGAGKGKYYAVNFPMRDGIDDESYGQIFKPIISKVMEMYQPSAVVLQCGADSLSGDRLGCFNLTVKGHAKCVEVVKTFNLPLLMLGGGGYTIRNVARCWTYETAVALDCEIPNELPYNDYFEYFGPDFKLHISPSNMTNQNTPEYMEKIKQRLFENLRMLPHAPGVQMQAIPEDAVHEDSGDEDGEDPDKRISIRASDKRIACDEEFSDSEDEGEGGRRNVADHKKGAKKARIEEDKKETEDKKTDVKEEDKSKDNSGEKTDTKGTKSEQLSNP
T1 sequence (O15379 whole entry): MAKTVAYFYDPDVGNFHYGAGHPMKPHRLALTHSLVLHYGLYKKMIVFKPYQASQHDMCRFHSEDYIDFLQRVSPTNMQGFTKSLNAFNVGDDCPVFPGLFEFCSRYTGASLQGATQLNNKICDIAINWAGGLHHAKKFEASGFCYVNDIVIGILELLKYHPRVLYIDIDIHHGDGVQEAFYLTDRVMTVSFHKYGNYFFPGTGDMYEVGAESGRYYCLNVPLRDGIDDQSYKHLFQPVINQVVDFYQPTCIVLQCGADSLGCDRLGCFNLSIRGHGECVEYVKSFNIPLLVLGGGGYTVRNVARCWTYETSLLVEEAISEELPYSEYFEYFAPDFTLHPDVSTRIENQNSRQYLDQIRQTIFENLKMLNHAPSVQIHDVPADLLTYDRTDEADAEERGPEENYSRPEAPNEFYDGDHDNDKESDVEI
T1 sequence (Q9Y618 whole entry, further chain): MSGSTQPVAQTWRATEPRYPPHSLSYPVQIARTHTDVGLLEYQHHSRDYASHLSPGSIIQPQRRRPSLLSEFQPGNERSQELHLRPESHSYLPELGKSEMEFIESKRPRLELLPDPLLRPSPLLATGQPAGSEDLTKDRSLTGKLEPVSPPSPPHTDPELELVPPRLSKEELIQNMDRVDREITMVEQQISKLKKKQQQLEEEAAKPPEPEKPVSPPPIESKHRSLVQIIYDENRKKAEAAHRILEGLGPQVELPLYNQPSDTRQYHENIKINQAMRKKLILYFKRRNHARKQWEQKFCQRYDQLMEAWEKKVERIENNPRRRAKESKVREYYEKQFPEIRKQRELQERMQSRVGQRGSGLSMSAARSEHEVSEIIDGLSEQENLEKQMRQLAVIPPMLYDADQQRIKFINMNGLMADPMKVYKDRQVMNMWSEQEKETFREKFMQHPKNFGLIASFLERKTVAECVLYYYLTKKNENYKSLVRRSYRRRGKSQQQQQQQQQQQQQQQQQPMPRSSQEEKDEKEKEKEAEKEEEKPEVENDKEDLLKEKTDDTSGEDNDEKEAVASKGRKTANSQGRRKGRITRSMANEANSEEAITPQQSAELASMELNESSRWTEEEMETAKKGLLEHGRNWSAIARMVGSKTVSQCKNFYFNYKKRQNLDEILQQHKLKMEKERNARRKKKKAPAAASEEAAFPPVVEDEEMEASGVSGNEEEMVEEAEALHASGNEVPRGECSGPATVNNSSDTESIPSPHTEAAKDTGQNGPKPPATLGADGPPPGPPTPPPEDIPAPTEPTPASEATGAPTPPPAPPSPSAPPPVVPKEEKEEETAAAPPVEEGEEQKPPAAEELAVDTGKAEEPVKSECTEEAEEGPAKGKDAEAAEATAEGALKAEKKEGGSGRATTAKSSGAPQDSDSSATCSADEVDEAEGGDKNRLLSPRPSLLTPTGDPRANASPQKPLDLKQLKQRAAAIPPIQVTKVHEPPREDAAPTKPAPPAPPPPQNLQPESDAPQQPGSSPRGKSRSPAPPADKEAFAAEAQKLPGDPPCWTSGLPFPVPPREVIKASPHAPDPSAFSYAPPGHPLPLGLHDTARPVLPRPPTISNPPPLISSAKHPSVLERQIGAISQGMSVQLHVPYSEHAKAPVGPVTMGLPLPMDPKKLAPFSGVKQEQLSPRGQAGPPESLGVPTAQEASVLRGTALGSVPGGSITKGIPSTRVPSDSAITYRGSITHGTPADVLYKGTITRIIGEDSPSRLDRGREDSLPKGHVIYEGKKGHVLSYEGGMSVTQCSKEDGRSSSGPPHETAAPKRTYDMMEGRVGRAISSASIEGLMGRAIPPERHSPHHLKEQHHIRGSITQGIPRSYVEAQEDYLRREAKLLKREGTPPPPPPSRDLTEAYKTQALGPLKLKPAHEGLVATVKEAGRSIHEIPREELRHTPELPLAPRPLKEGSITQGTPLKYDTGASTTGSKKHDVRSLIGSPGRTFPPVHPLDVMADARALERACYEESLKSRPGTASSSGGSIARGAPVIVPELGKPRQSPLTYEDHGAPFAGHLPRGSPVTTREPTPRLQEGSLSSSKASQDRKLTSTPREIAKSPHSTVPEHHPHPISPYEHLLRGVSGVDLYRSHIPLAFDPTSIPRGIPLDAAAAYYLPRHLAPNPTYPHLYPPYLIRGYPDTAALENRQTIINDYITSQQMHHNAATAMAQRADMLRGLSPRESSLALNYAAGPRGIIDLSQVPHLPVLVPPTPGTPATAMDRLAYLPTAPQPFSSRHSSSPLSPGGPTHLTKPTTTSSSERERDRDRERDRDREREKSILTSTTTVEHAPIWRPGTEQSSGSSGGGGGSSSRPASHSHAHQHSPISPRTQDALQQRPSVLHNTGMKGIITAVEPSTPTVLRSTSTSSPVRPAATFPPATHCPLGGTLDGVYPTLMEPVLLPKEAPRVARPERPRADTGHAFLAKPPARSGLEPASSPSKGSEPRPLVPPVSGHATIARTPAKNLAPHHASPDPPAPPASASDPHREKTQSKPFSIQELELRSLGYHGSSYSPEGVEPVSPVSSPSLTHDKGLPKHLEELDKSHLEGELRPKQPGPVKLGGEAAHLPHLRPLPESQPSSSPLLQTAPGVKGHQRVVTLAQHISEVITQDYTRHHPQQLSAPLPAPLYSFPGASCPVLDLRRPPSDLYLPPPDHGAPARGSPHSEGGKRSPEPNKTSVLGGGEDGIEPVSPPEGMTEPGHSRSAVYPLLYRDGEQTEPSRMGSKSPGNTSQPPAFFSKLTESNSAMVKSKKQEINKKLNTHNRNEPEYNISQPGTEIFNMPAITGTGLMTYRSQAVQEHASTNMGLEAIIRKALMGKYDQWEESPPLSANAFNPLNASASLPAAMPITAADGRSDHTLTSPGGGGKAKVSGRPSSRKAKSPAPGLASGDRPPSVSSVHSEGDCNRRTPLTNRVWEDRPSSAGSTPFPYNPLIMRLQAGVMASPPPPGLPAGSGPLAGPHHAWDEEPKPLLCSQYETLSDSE
Sequence of Histone deacetylase 5 (Q9UQL6 whole entry): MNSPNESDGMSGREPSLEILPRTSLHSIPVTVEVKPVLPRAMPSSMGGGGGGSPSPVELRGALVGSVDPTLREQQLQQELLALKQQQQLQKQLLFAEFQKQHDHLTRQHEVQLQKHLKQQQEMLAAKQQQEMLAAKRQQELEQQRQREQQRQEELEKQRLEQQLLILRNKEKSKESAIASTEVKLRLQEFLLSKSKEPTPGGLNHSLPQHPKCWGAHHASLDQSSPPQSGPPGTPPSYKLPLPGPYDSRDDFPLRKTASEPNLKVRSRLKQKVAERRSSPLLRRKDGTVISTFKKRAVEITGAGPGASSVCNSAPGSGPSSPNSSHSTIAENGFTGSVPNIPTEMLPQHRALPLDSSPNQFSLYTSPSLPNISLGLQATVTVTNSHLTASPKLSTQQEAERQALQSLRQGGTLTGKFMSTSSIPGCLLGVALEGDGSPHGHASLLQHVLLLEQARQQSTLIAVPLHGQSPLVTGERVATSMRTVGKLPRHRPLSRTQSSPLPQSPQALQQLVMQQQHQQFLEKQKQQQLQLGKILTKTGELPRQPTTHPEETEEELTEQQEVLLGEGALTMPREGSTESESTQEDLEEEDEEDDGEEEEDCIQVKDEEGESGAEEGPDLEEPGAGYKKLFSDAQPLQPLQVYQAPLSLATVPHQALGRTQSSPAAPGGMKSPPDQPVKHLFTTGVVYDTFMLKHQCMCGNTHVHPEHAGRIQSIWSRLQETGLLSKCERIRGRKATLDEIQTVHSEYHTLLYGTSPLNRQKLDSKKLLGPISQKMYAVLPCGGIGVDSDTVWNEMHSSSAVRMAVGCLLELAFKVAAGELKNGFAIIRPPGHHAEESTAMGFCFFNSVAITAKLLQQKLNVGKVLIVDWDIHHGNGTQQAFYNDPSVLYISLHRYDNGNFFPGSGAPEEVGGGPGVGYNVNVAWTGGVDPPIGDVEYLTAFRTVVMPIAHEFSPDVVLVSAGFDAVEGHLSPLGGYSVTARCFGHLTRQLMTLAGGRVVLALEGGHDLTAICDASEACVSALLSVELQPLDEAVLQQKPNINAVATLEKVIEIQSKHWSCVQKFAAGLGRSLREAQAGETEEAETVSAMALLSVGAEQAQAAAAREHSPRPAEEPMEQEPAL

As for `O=C(/C=C(\CO)c1ccccc1)c1ccccc1`, the IC50 (commonly the concentration needed to halve the response being measured) in test [1] worked out at 50000 nM; in test [3], 170 nM; in test [4], 2740 nM. The Ratio IC50 in test [2] amounted to 20.

Consider `Nc1ccccc1NC(=O)CCCCCC(=O)Nc1ccccc1`, for which the IC50 in test [5] is 199 nM; in test [6], 5000 nM; in test [7] it was over 180000 nM; in test [8], 69 nM; in [9], over 180000 nM; in test [10], over 180000 nM. Besides, inhibition in [11] was half-maximal at 1590 nM (IC50).

In the case of `C[C@H](CO)N1C[C@H](C)[C@H](CN(C)Cc2ccc(C(=O)Nc3ccccc3N)cc2)Oc2ccc(N(C)C)cc2CC1=O`, the figures for the IC50 in [12], in test [13] and in test [14] were 69 nM, 560 nM and 1300 nM, respectively.
